Laboratory results: patent US10087185B2 (Janssen Pharmaceutica NV, priority 2016, dated 2018)

biological target: TARP γ8 dependent AMPA receptor (GRIA1o-CACNG8 fusion construct) (Homo sapiens (Human), UniProt P42261+Q8WXS5); experiment: Calcium flux assay (FLIPR), inhibition of glutamate response of GluA1o-γ8 channel; type: cell-based; settings: HEK293 cells stably expressing GRIA1o-CACNG8 fusion; calcium flux after 15 μM glutamate; negative log of the IC50 in molar
Text: This assay was used to test compounds for their ability to inhibit TARP γ8 dependent AMPA receptor activity. The AMPA receptor is a non-selective cation channel activated by glutamate. […] But, this desensitization is incomplete, and a substantial steady-state current remains in the sustained presence of glutamate (Cho et al. (2007). “Two families of TARP isoforms that have distinct effects on the kinetic properties of AMPA receptors and synaptic currents.” Neuron 55(6): 890-904).
An in vitro assay was used to determine the potency of test compounds as inhibitors of the glutamate response of the channel formed by GluA10-γ8. To ensure a 1:1 stoichiometry of GluA1o and γ8 subunits in the expressed channel, a fusion of the cDNAs for GRIA1o and CACNG8 was used. Following Shi et al (2009) “The stoichiometry of AMPA receptors and TARPs varies by neuronal cell type.” Neuron 62(5): 633-640), the C-terminus of the cDNA for GRIA1o was fused to the N-terminus of the cDNA for γ8. The linker sequence was […]. Channels expressed with this construct appear to have similar properties to channels formed by co-expression of GRIA1o with an excess of CACNG8 (Shi et al. 2009). A clonal cell line in HEK293 cells stably expressing this construct, with a geneticin selection marker, was generated for use in this assay.
Cell expressing the GRIA1o-CACNG8 fusion construct were grown in a monolayer in 96- or 384-well microtiter plates. They were washed with assay buffer (135 mM NaCl, 4 mM KCl, 3 mM CaCl2, 1 mM MgCl2, 5 mM glucose, 10 mM HEPES, pH 7.4, 300 mOs) using a Biotek EL405 plate washer. The cells were then loaded with a calcium-sensitive dye (Calcium-5 or Calcium-6, Molecular Devices) and the test compounds at a range of concentrations. Calcium flux following the addition of 15 μM glutamate was monitored using a Molecular Devices FLIPR Tetra.
The fluorescence in each well was normalized to the fluorescence of negative and positive control wells. The negative control wells had no added compounds, and the positive control wells had been incubated with 10 μM CP465022 (a non-subtype-selective AMPA receptor antagonist) (Lazzaro et al. (2002). “Functional characterization of CP-465,022, a selective, noncompetitive AMPA receptor antagonist.” Neuropharmacology 42(2): 143-153). The responses to glutamate as functions of the test compound concentrations were fitted to a four-parameter logistic function. The fitted parameter corresponding to the midpoint was taken to be the potency of inhibition of the compound. The data in Table 4 below illustrates the observed potency for the compounds described herein. pIC50 refers to the negative log of the IC50 in molar.

Chain of TARP γ8 dependent AMPA receptor (GRIA1o-CACNG8 fusion construct) (P42261 other isoform, or with tags, fused parts or gaps): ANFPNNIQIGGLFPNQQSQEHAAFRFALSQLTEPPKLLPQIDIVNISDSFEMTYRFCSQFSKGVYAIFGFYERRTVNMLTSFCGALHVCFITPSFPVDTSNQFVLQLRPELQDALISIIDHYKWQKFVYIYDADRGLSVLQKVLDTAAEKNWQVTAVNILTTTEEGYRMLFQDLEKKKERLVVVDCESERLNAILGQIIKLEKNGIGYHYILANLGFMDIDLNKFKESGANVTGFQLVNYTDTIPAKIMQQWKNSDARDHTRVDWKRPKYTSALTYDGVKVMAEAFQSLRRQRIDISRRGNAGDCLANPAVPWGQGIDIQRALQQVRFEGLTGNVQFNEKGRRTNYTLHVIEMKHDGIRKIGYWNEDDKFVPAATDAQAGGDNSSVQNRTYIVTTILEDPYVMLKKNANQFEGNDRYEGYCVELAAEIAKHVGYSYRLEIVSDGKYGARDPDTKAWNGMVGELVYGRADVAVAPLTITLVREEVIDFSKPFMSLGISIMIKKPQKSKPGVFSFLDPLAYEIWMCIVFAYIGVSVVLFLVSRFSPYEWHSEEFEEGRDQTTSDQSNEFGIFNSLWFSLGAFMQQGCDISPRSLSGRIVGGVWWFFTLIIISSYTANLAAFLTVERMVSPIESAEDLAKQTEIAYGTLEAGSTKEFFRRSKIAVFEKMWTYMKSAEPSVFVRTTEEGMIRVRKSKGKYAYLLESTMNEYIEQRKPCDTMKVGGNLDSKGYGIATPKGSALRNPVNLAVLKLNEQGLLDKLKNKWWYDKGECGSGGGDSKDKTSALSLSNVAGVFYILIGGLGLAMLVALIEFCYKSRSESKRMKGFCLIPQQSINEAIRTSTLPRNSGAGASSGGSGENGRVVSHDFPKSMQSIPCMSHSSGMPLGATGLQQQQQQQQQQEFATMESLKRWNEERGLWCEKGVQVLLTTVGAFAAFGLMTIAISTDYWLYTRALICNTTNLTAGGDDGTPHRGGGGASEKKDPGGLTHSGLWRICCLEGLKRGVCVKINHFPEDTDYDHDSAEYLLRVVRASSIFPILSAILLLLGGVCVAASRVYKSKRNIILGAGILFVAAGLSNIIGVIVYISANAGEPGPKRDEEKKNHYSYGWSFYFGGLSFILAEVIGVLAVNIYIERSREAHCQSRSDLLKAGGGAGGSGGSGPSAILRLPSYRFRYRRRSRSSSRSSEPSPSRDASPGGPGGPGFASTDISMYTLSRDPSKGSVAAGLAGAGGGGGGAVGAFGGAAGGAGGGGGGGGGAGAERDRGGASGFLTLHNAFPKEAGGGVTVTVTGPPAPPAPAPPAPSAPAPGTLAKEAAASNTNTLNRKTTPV

SMILES	IC50 [nM]	pIC50
Cc1nc2ccc(-c3ccc(F)cc3)c(-c3cc(C)c4[nH]ncc4c3)n2n1 [Example 60, 6-(4-Fluorophenyl)-2-methyl-5-(7-methyl-1H-indazol-5-yl)-[1,2,4]triazolo[1,5-a]pyridine]	1.26	
CCc1nc2ccc(-c3ccc(F)cc3)c(-c3cc(C)c4[nH]ncc4c3)n2n1 [Example 61, 2-Ethyl-6-(4-fluorophenyl)-5-(7-methyl-1H-indazol-5-yl)-[1,2,4]triazolo[1,5-a]pyridine]	0.2	
Cc1cc(-c2c(-c3ccc(F)cc3)ccc3nc(C4CC4)nn23)cc2cn[nH]c12 [Example 62, 2-Cyclopropyl-6-(4-fluorophenyl)-5-(7-methyl-1H-indazol-5-yl)-[1,2,4]triazolo[1,5-a]pyridine]	0.126	
FC(F)(F)c1cc2ccc(C(F)(F)F)c(-c3cc(Cl)c4[nH]ncc4c3)n2n1 [Example 63, 5-(2,6-Bis(trifluoromethyl)pyrazolo[1,5-a]pyridin-7-yl)-7-chloro-1H-indazole]	0.0158	
CC(C)c1cc2ccc(C(F)(F)F)c(-c3cc(Cl)c4[nH]ncc4c3)n2n1 [Example 73, 7-Chloro-5-(2-isopropyl-6-(trifluoromethyl)pyrazolo[1,5-a]pyridin-7-yl)-1H-indazole]	0.01	
Cc1cc(-c2c(C(F)(F)F)cc(C)c3nc(C4CC4)nn23)cc2cn[nH]c12 [Example 76, 2-Cyclopropyl-8-methyl-5-(7-methyl-1H-indazol-5-yl)-6-(trifluoromethyl)-[1,2,4]triazolo[1,5-a]pyridine]	0.158	
Cc1cc(C(F)F)c(-c2cc(Cl)c3[nH]ncc3c2)n2nc(C(F)(F)F)nc12 [Example 77, 5-(7-Chloro-1H-indazol-5-yl)-6-(difluoromethyl)-8-methyl-2-(trifluoromethyl)-[1,2,4]triazolo[1,5-a]pyridine]	0.251	
Cc1cc(C(F)(F)F)c(-c2cc(Cl)c3[nH]ncc3c2)n2nc(C(F)F)nc12 [Example 78, 5-(7-Chloro-1H-indazol-5-yl)-2-(difluoromethyl)-8-methyl-6-(trifluoromethyl)-[1,2,4]triazolo[1,5-a]pyridine]	0.126	
Cc1cc(-c2c(C(F)(F)F)cc(C)c3nc(C(F)F)nn23)cc2cn[nH]c12 [Example 79, 2-(Difluoromethyl)-8-methyl-5-(7-methyl-1H-indazol-5-yl)-6-(trifluoromethyl)-[1,2,4]triazolo[1,5-a]pyridine]	0.398	
CCc1cc(C(F)(F)F)c(-c2cc(Cl)c3[nH]ncc3c2)n2nc(C3CC3)nc12 [Example 80, 5-(7-Chloro-1H-indazol-5-yl)-2-cyclopropyl-8-ethyl-6-(trifluoromethyl)-[1,2,4]triazolo[1,5-a]pyridine]	0.158	
CCc1cc(C(F)(F)F)c(-c2cc(C)c3[nH]ncc3c2)n2nc(C3CC3)nc12 [Example 81, 2-Cyclopropyl-8-ethyl-5-(7-methyl-1H-indazol-5-yl)-6-(trifluoromethyl)-[1,2,4]triazolo[1,5-a]pyridine]	0.501	
CCCc1nc2c(C)cc(C(F)(F)F)c(-c3cc(Cl)c4[nH]ncc4c3)n2n1 [Example 83, 5-(7-Chloro-1H-indazol-5-yl)-8-methyl-2-propyl-6-(trifluoromethyl)-[1,2,4]triazolo[1,5-a]pyridine]	0.2	
CCCc1nc2c(C)cc(C(F)(F)F)c(-c3cc(C)c4[nH]ncc4c3)n2n1 [Example 84, 8-Methyl-5-(7-methyl-1H-indazol-5-yl)-2-propyl-6-(trifluoromethyl)-[1,2,4]triazolo[1,5-a]pyridine]	1	
Cc1cc(-c2c(C(F)(F)F)cc(C)c3nc(C(F)F)nn23)cc2cn[nH]c12 [Example 86, 2-(Difluoromethyl)-8-methyl-5-(7-methyl-1H-indazol-5-yl)-6-(trifluoromethyl)-[1,2,4]triazolo[1,5-a]pyridine]		9.4
CCc1cc(C(F)(F)F)c(-c2cc(Cl)c3[nH]ncc3c2)n2nc(C(F)F)nc12 [Example 87, 5-(7-Chloro-1H-indazol-5-yl)-2-(difluoromethyl)-8-ethyl-6-(trifluoromethyl)-[1,2,4]triazolo[1,5-a]pyridine]	0.398	
CCc1cc(C(F)(F)F)c(-c2cc(C)c3[nH]ncc3c2)n2nc(C(F)F)nc12 [Example 88, 2-(Difluoromethyl)-8-ethyl-5-(7-methyl-1H-indazol-5-yl)-6-(trifluoromethyl)-[1,2,4]triazolo[1,5-a]pyridine]	1.58	
CCc1nc2c(CC)cc(C(F)(F)F)c(-c3cc(Cl)c4[nH]ncc4c3)n2n1 [Example 89, 5-(7-Chloro-1H-indazol-5-yl)-2,8-diethyl-6-(trifluoromethyl)-[1,2,4]triazolo[1,5-a]pyridine]	0.794	
CCc1nc2c(CC)cc(C(F)(F)F)c(-c3cc(C)c4[nH]ncc4c3)n2n1 [Example 90, 2,8-Diethyl-5-(7-methyl-1H-indazol-5-yl)-6-(trifluoromethyl)-[1,2,4]triazolo[1,5-a]pyridine]	3.16	

The remaining lines, values ahead:

IC50 [nM]	pIC50	SMILES
0.0158		Cc1cc(-c2c(C(F)(F)F)ccc3cc(C(F)(F)F)nn23)cc2cn[nH]c12 [Example 64, 5-(2,6-Bis(trifluoromethyl)pyrazolo[1,5-a]pyridin-7-yl)-7-methyl-1H-indazole]
0.0158		Cc1cc(-c2c(C(F)(F)F)ccc3cc(C(F)(F)F)nn23)cc2c1NC(=O)C2 [Example 65, 5-(2,6-Bis(trifluoromethyl)pyrazolo[1,5-a]pyridin-7-yl)-7-methylindolin-2-one]
0.0126		O=C1Cc2cc(-c3c(C(F)(F)F)ccc4cc(C(F)(F)F)nn34)cc(Cl)c2N1 [Example 66, 5-(2,6-Bis(trifluoromethyl)pyrazolo[1,5-a]pyridin-7-yl)-7-chloroindolin-2-one]
0.0501		Cc1cc(-c2c(C(F)(F)F)ccc3cc(C4CC4)nn23)cc2c1NC(=O)C2 [Example 67, 5-(2-Cyclopropyl-6-(trifluoromethyl)pyrazolo[1,5-a]pyridin-7-yl)-7-methylindolin-2-one]
0.02		O=C1Cc2cc(-c3c(C(F)(F)F)ccc4cc(C5CC5)nn34)cc(Cl)c2N1 [Example 68, 5-(2-Cyclopropyl-6-(trifluoromethyl)pyrazolo[1,5-a]pyridin-7-yl)-7-chloroindolin-2-one]
0.0501		Cc1cc(-c2c(C(F)(F)F)ccc3cc(C4CC4)nn23)cc2cn[nH]c12 [Example 69, 5-(2-Cyclopropyl-6-(trifluoromethyl)pyrazolo[1,5-a]pyridin-7-yl)-7-methyl-1H-indazole]
0.0631		FC(F)(F)c1ccc2cc(C3CC3)nn2c1-c1cc(Cl)c2[nH]ncc2c1 [Example 70, 7-Chloro-5-(2-cyclopropyl-6-(trifluoromethyl)pyrazolo[1,5-a]pyridin-7-yl)-1H-indazole]
0.0158		Cc1cc(-c2c(C(F)(F)F)ccc3cc(C(C)C)nn23)cc2c1NC(=O)C2 [Example 71, 5-(2-Isopropyl-6-(trifluoromethyl)pyrazolo[1,5-a]pyridin-7-yl)-7-methylindolin-2-one]
0.0126		CC(C)c1cc2ccc(C(F)(F)F)c(-c3cc(Cl)c4c(c3)CC(=O)N4)n2n1 [Example 72, 5-(2-Isopropyl-6-(trifluoromethyl)pyrazolo[1,5-a]pyridin-7-yl)-7-chloroindolin-2-one]
0.0794		Cc1cc(-c2c(C(F)(F)F)ccc3cc(C(C)C)nn23)cc2cn[nH]c12 [Example 74, 5-(2-Isopropyl-6-(trifluoromethyl)pyrazolo[1,5-a]pyridin-7-yl)-7-methyl-1H-indazole]
0.126		Cc1cc(C(F)(F)F)c(-c2cc(Cl)c3c(c2)CC(=O)N3)n2nc(C3CC3)nc12 [Example 75, 7-Chloro-5-(2-cyclopropyl-8-methyl-6-(trifluoromethyl)-[1,2,4]triazolo[1,5-a]pyridin-5-yl)indolin-2-one]
0.316		CCc1cc(C(F)(F)F)c(-c2cc(C)c3c(c2)CC(=O)N3)n2nc(C3CC3)nc12 [Example 82, 5-(2-Cyclopropyl-8-ethyl-6-(trifluoromethyl)-[1,2,4]triazolo[1,5-a]pyridin-5-yl)-7-methylindolin-2-one]
0.316		CCCc1nc2c(C)cc(C(F)(F)F)c(-c3cc(C)c4c(c3)CC(=O)N4)n2n1 [Example 85, 7-Methyl-5-(8-methyl-2-propyl-6-(trifluoromethyl)-[1,2,4]triazolo[1,5-a]pyridin-5-yl)indolin-2-one]
